Source: US10407406B2, “2-halo-5-alkynyl-pyridyl nicotinic ligands” (Georgetown University, priority 2013, dated 2019)
Read-outs that look alike come from different tables or passages of the source.

Tests used:
α3β4 nAChR = biological target: T1, α3β4 nAChR (Rattus norvegicus, UniProt P04757+P12392); test: [3H]-epibatidine competition binding, α3β4 nAChR in stably transfected HEK 293 cells; details: competition against [3H]-epibatidine
T1 construct: expressed in transfected cells; host or cells: HEK 293
Description: (§1) Pharmacological Properties. We measured the in vitro binding affinities of the ligands for defined receptor subtypes (α2β2, α2β4, α3β2, α3β4, α4β2, α4β4, α6β2, α6β4, and α7) expressed in stably transfected cell lines. […] Rat forebrain homogenates were included to allow comparison between the heterologous and native α4β2 and α7 nAChRs.
(§2) To determine selectivities of these compounds in binding assays among the three predominant nAChR subtypes, α3β4, α4β2, and α7, the ratios of Ki values (α3β4/α4β2 and α7/α4β2) were determined.
(§3) The cell lines expressing defined rat nAChR subtypes were established previously by stably transfecting HEK 293 cells with rat nAChR subunit genes. The cell line expressing human α4β2 nAChRs, YXα4β2H1, was established recently. These cell lines were maintained in minimum essential medium (MEM) supplemented with 10% fetal bovine serum, 100 units/mL penicillin G, […] streptomycin and selective antibiotics at 37° C. with 5% CO2 in a humidified incubator. Fetal bovine scrum was provided by Gemini Bio-Products (Woodland, Calif.). Tissue culture medium and antibiotics were obtained from Invitrogen Corporation (Carlsbad, Calif.), unless otherwise stated.
(§4) Briefly, cultured cells at >80% confluence were removed from their flasks (80 cm^2) with a disposable cell scraper and placed in 10 mL of 50 mM Tris⋅HCl buffer (pH 7.4, 4° C.). The cell suspension was centrifuged at 10,000×g for 5 min and the pellet was collected. The cell pellet was then homogenized in 10 mL buffer with a polytron homogenizer and centrifuged at 36,000 g for 10 min at 4° C. The membrane pellet was resuspended in fresh buffer, and aliquots of the membrane preparation were used for binding assays. […] Bound and free ligands were separated by vacuum filtration through Whatman GF/C filters treated with 0.5% polyethylenimine. The filter-retained radioactivity was measured by liquid scintillation counting. Specific binding was defined as the difference between total binding and nonspecific binding. Data from competition binding assays were analyzed using Prism 5 (GraphPad Software, San Diego, Calif.).

α4β2 nAChR = biological target: T2, α4β2 nAChR (Rattus norvegicus, UniProt P09483+P12390); test: [3H]-epibatidine competition binding, α4β2 nAChR in stably transfected HEK 293 cells; details: competition against [3H]-epibatidine
T2 construct: expressed in transfected cells; host or cells: HEK 293
Description: as §1, §2, §3, §4

rat α3β4 nAChRs = biological target: T3, rat α3β4 nAChRs (Rattus norvegicus, UniProt P04757+P12392); test: 86Rb+ efflux assay in cells expressing rat α3β4 nAChRs; type: cell-based; details: for Emax: read-out: α3β4 Emax; for α3β4 Emax: efficacy compared to 100 μM (−)-nicotine
T3 construct: expressed in transfected cells; host or cells: HEK 293
Protocol: (§5) The functional properties of the ligands were determined by ^86Rb^| efflux assays in cells expressing α3β4 and α4β2 nAChR subtypes. The functional activity of each ligand was measured for its agonism, antagonism and desensitization ability. Agonist activity for each of the ligands was tested at eight different concentrations. […] The full concentration-effect curves generated potency (EC50) and efficacy (Emax) of each ligand. […] Each ligand was tested for antagonist activity at eight concentrations. The potency (IC50(0′)) of each ligand as an antagonist was derived from the full concentration-effect curves. […] Although ^86Rb^+ efflux assays are mainly used to determine functional properties, whole cell current measurements were also used to verify the key experiments.
(§6) In Vitro Effects on nAChR Function. […] Their agonist activities were assessed by measuring stimulated ^86Rb^+ efflux from stably transfected cells, either expressing human α4β2 nAChRs or rat α3β4 receptors.
as §3
(§7) Functional properties of compounds at nAChRs expressed in the transfected cells were measured using ^86Rb^+ efflux assays as described previously. In brief, cells expressing human α4β2 or rat α3β4 nAChRs were plated into 24-well plates coated with poly-D-lysine. The plated cells were grown at 37° C. for 18 to 24 hour to reach 85-95% confluence. The cells were then incubated in growth medium (0.5 mL/well) containing ^86Rb^+ (2 μCi/mL) for 4 hour at 37° C. The loading mixture was then aspirated, and the cells were washed four times with 1 mL buffer (15 mM HEPES, 140 mM NaCl, 2 mM KCl, 1 mM MgSO4, 1.8 mM CaCl2, 11 mM Glucose, pH 7.4). One mL of buffer with or without compounds to be tested was then added to each well. After incubation for 2 min, the assay buffer was collected for measurements of ^86R^+ released from the cells. Cells were then lysed by adding 1 mL of 100 mM NaOH to each well, and the lysate was collected for determination of the amount of ^86Rb^+ that was in the cells at the end of the efflux assay. Radioactivity of assay samples and lysates was measured by liquid scintillation counting. Total loading (cpm) was calculated as the sum of the assay sample and the lysate of each well. The amount of ^86Rb^+ efflux was expressed as a percentage of ^86Rb^| loaded. […] For obtaining EC50 and Emax values, stimulation curves were constructed in which 8 different concentrations of a ligand were included in the assay. […] EC50, Emax and IC50(10′) values were determined by nonlinear least-squares regression analyses (GraphPad, San Diego, Calif.).

human α4β2 nAChRs = biological target: T4, human α4β2 nAChRs (Homo sapiens, UniProt P17787+P43681); test: 86Rb+ efflux assay in cells expressing human α4β2 nAChRs; type: cell-based; details: for IC50: desensitization, 10 min pre-treatment before 100 μM (−)-nicotine; for α4β2 Emax: efficacy compared to 100 μM (−)-nicotine
T4 construct: expressed in transfected cells
Protocol: as §5, §6, §3, §7

α7 nAChR = biological target: T5, α7 nAChR (Rattus norvegicus, UniProt Q05941); test: biochemical; type: binding; details: competition against [3H]-epibatidine
T5 construct: expressed in transfected cells; host or cells: HEK 293
Description: as §1, §2
as §3, with “Fetal bovine scrum was provided by Gemini Bio-Products (Woodland, Calif.). Tissue culture medium and antibiotics were obtained from Invitrogen Corporation (Carlsbad, Calif.), unless otherwise stated.” left out
Briefly, cultured cells at >80% confluence were removed from their flasks (80 cm^2) with a disposable cell scraper and placed in 10 mL of 50 mM Tris⋅HCl buffer (pH 7.4, 4° C.). […] The filter-retained radioactivity was measured by liquid scintillation counting. […] Data from competition binding assays were analyzed using Prism 5 (GraphPad Software, San Diego, Calif.).

[1] = agonist activity, stimulated 86Rb+ efflux, read-out: α3β4 EC50

Row | SMILES | Ki (α3β4 nAChR) | Ki (α4β2 nAChR) | EC50 (rat α3β4 nAChRs) | Emax (rat α3β4 nAChRs) | agonist activity at the α3β4 nAChRs (in words) (rat α3β4 nAChRs; stimulated 86Rb+ efflux) | IC50 (human α4β2 nAChRs) | EC50 (rat α3β4 nAChRs; [1]) | α3β4 Emax (rat α3β4 nAChRs) | Ki (α7 nAChR) | EC50 (human α4β2 nAChRs) | α4β2 Emax (human α4β2 nAChRs; di-trifluoroacetic acid) | Emax (human α4β2 nAChRs; read-out: α4β2 Emax, efficacy compared to 100 μM (−)-nicotine) | IC50 (rat α3β4 nAChRs; desensitization, 10 min pre-treatment before 100 μM (−)-nicotine) | EC50 (human α4β2 nAChRs; agonist activity, stimulated 86Rb+ efflux, read-out: α4β2 EC50) | α4β2 Emax (human α4β2 nAChRs) | agonist activity at the α4β2 nAChRs (in words) (human α4β2 nAChRs) | Emax (human α4β2 nAChRs; read-out: α4β2 Emax)
1 | CCCCC#Cc1cnc(C)c(OC[C@@H]2CCN2)c1 [YL-1-127, (S)-3-(azetidin-2-ylmethoxy)-5-(hex-1-ynyl)-2-methylpyridine] | 575 nM | 14 nM | 11000 nM | 10% | did not show detectable agonist activity | 260 nM |  |  |  |  |  |  |  |  |  |  | 
2 | c1cnc2cc3c(cc2n1)[C@@H]1CNC[C@H]3C1 [Varenicline] | 27 nM | 0.14 nM |  |  |  |  | 3200 nM | 82% |  |  |  |  |  |  |  |  | 
3 | FCCCCC#Cc1cnc(F)c(OC[C@@H]2CCN2)c1 [YL-2-203, (S)-3-(azetidin-2-ylmethoxy)-2-fluoro-5-(6-fluorohex-1-ynyl)pyridine di-trifluoroacetic acid] | 93 nM | 0.2 nM | 6300 nM | 26% | did not show detectable agonist activity |  |  |  | 11000 nM | 35 nM | 33% | < 33% |  |  |  |  | 
4 | OCCCCC#Cc1cncc(OC[C@@H]2CCN2)c1 [Sazetidine-A] | 6.5 nM | 0.034 nM |  |  |  | 11 nM | 730 nM | 96% | 670 nM |  |  |  | 1300 nM | 24 nM | 40% |  | 
5 | CN1CCCC1c1cccnc1 (single isomer, unassigned; (-)) [(−)-Nicotine] |  |  |  |  |  |  |  |  |  |  |  |  |  |  |  | full agonist activities | 100%
